# Measurements published in PubChem BioAssay (NCI).
#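 Results reflect a 48-hour exposure of cells in 96-well plates to compound at five concentrations. Here, GI50 denotes the concentration required for 50% inhibition of growth. At the TGI there is no net growth.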
# Columns and labels:
# Assay in all cases: DTP human tumour cell line panel, 48 h
# HCC-2998 colon = test system: HCC-2998 colon
# UO-31 renal = test system: UO-31 renal
# SR leukemia = test system: SR leukemia
# T-47D breast = test system: T-47D breast
# DU-145 prostate = test system: DU-145 prostate
# CAKI-1 renal = test system: CAKI-1 renal
# OVCAR-3 ovarian = test system: OVCAR-3 ovarian
# NCI-H460 lung = test system: NCI-H460 lung
# M14 melanoma = test system: M14 melanoma
# NCI/ADR-RES ovarian = test system: NCI/ADR-RES ovarian
# IGROV1 ovarian = test system: IGROV1 ovarian
# TK-10 renal = test system: TK-10 renal
# U251 CNS = test system: U251 CNS
# HOP-62 NSCLC = test system: HOP-62 NSCLC
# NCI-H226 lung = test system: NCI-H226 lung
# SK-MEL-2 melanoma = test system: SK-MEL-2 melanoma
# UACC-257 melanoma = test system: UACC-257 melanoma
# UACC-62 melanoma = test system: UACC-62 melanoma
# ACHN renal = test system: ACHN renal
# A498 renal = test system: A498 renal
# SNB-19 CNS = test system: SNB-19 CNS
# CCRF-CEM leukemia = test system: CCRF-CEM leukemia
# PC-3 prostate = test system: PC-3 prostate
# BT-549 breast = test system: BT-549 breast
# HCT-15 colon = test system: HCT-15 colon
# OVCAR-4 ovarian = test system: OVCAR-4 ovarian
# HCT-116 colon = test system: HCT-116 colon
# SF-295 CNS = test system: SF-295 CNS
# MDA-MB-435 = test system: MDA-MB-435
# A549 NSCLC = test system: A549 NSCLC
# MOLT-4 leukemia = test system: MOLT-4 leukemia
# SW-620 colon = test system: SW-620 colon
# OVCAR-8 ovarian = test system: OVCAR-8 ovarian
# LOX IMVI melanoma = test system: LOX IMVI melanoma
# NCI-H522 lung = test system: NCI-H522 lung
# RPMI-8226 leukemia = test system: RPMI-8226 leukemia
# SN12C renal = test system: SN12C renal
# HS 578T breast = test system: HS 578T breast
# SF-268 CNS = test system: SF-268 CNS
# SK-MEL-5 melanoma = test system: SK-MEL-5 melanoma
# OVCAR-5 ovarian = test system: OVCAR-5 ovarian
# SF-539 CNS = test system: SF-539 CNS
# NCI-H23 lung = test system: NCI-H23 lung
# HT29 colon = test system: HT29 colon
# SK-OV-3 ovarian = test system: SK-OV-3 ovarian
# MDA-MB-231 breast = test system: MDA-MB-231 breast
# KM12 colon = test system: KM12 colon
# MALME-3M melanoma = test system: MALME-3M melanoma
# SK-MEL-28 melanoma = test system: SK-MEL-28 melanoma
# EKVX NSCLC = test system: EKVX NSCLC
# SNB-75 CNS = test system: SNB-75 CNS
# HL-60(TB) leukemia = test system: HL-60(TB) leukemia
# K-562 leukemia = test system: K-562 leukemia
# RXF 393 renal = test system: RXF 393 renal
# MCF7 breast = test system: MCF7 breast
# 786-0 renal = test system: 786-0 renal
# COLO 205 colon = test system: COLO 205 colon
smiles,measurement,setting,value
CCC(CC)COC(=O)[C@H](C)N[P@](=O)(OC[C@H]1O[C@@](C#N)(c2ccc3c(N)ncnn23)[C@H](O)[C@@H]1O)Oc1ccccc1,GI50,HCC-2998 colon,5.39 µM
same,TGI,HCC-2998 colon,> 100 µM
same,GI50,UO-31 renal,41.3 µM
same,TGI,UO-31 renal,> 100 µM
same,GI50,SR leukemia,1 µM
same,TGI,SR leukemia,32.4 µM
same,GI50,T-47D breast,1.82 µM
same,TGI,T-47D breast,> 100 µM
same,GI50,DU-145 prostate,8.44 µM
same,TGI,DU-145 prostate,> 100 µM
same,GI50,CAKI-1 renal,4.19 µM
same,TGI,CAKI-1 renal,> 100 µM
same,GI50,OVCAR-3 ovarian,2.35 µM
same,TGI,OVCAR-3 ovarian,18.5 µM
same,GI50,NCI-H460 lung,4.83 µM
same,TGI,NCI-H460 lung,> 100 µM
same,GI50,M14 melanoma,1.95 µM
same,TGI,M14 melanoma,12.2 µM
same,GI50,NCI/ADR-RES ovarian,> 100 µM
same,TGI,NCI/ADR-RES ovarian,> 100 µM
same,GI50,IGROV1 ovarian,2.72 µM
same,TGI,IGROV1 ovarian,95.2 µM
same,GI50,TK-10 renal,9.85 µM
same,TGI,TK-10 renal,> 100 µM
same,GI50,U251 CNS,15.9 µM
same,TGI,U251 CNS,> 100 µM
same,GI50,HOP-62 NSCLC,6.34 µM
same,TGI,HOP-62 NSCLC,> 100 µM
same,GI50,NCI-H226 lung,7.61 µM
same,TGI,NCI-H226 lung,49.1 µM
same,GI50,SK-MEL-2 melanoma,0.97 µM
same,TGI,SK-MEL-2 melanoma,4.51 µM
same,GI50,UACC-257 melanoma,2.73 µM
same,TGI,UACC-257 melanoma,15.7 µM
same,GI50,UACC-62 melanoma,2.56 µM
same,TGI,UACC-62 melanoma,11 µM
same,GI50,ACHN renal,18.3 µM
same,TGI,ACHN renal,> 100 µM
same,GI50,A498 renal,0.359 µM
same,TGI,A498 renal,8.57 µM
same,GI50,SNB-19 CNS,15.7 µM
same,TGI,SNB-19 CNS,> 100 µM
same,GI50,CCRF-CEM leukemia,3.51 µM
same,TGI,CCRF-CEM leukemia,51.6 µM
same,GI50,PC-3 prostate,3.58 µM
same,TGI,PC-3 prostate,14.2 µM
same,GI50,BT-549 breast,9.62 µM
same,TGI,BT-549 breast,50.7 µM
same,GI50,HCT-15 colon,29.1 µM
same,TGI,HCT-15 colon,> 100 µM
same,GI50,OVCAR-4 ovarian,3.02 µM
same,TGI,OVCAR-4 ovarian,66 µM
same,GI50,HCT-116 colon,2.24 µM
same,TGI,HCT-116 colon,30.2 µM
same,GI50,SF-295 CNS,31 µM
same,TGI,SF-295 CNS,> 100 µM
same,GI50,MDA-MB-435,4.53 µM
same,TGI,MDA-MB-435,25.1 µM
same,GI50,A549 NSCLC,47.7 µM
same,TGI,A549 NSCLC,> 100 µM
same,GI50,MOLT-4 leukemia,2.79 µM
same,TGI,MOLT-4 leukemia,31.2 µM
same,GI50,SW-620 colon,1.92 µM
same,TGI,SW-620 colon,> 100 µM
same,GI50,OVCAR-8 ovarian,5.91 µM
same,TGI,OVCAR-8 ovarian,> 100 µM
same,GI50,LOX IMVI melanoma,3.58 µM
same,TGI,LOX IMVI melanoma,22.1 µM
same,GI50,NCI-H522 lung,1.29 µM
same,TGI,NCI-H522 lung,27.3 µM
same,GI50,RPMI-8226 leukemia,1.02 µM
same,TGI,RPMI-8226 leukemia,10.6 µM
same,GI50,SN12C renal,7.73 µM
same,TGI,SN12C renal,> 100 µM
same,GI50,HS 578T breast,13.2 µM
same,TGI,HS 578T breast,> 100 µM
same,GI50,SF-268 CNS,4.29 µM
same,TGI,SF-268 CNS,> 100 µM
same,GI50,SK-MEL-5 melanoma,5.24 µM
same,TGI,SK-MEL-5 melanoma,17.5 µM
same,GI50,OVCAR-5 ovarian,40.2 µM
same,TGI,OVCAR-5 ovarian,> 100 µM
same,GI50,SF-539 CNS,10.8 µM
same,TGI,SF-539 CNS,37.3 µM
same,GI50,NCI-H23 lung,2.59 µM
same,TGI,NCI-H23 lung,12.1 µM
same,GI50,HT29 colon,6.08 µM
same,TGI,HT29 colon,> 100 µM
same,GI50,SK-OV-3 ovarian,2.65 µM
same,TGI,SK-OV-3 ovarian,> 100 µM
same,GI50,MDA-MB-231 breast,5.46 µM
same,TGI,MDA-MB-231 breast,81.3 µM
same,GI50,KM12 colon,15.3 µM
same,TGI,KM12 colon,> 100 µM
same,GI50,MALME-3M melanoma,2.08 µM
same,TGI,MALME-3M melanoma,6.91 µM
same,GI50,SK-MEL-28 melanoma,2.83 µM
same,TGI,SK-MEL-28 melanoma,11.8 µM
same,GI50,EKVX NSCLC,19.1 µM
same,TGI,EKVX NSCLC,> 100 µM
same,GI50,SNB-75 CNS,2.75 µM
same,TGI,SNB-75 CNS,91.6 µM
same,GI50,HL-60(TB) leukemia,0.701 µM
same,TGI,HL-60(TB) leukemia,8.62 µM
same,GI50,K-562 leukemia,0.597 µM
same,TGI,K-562 leukemia,> 100 µM
same,GI50,RXF 393 renal,2.8 µM
same,TGI,RXF 393 renal,23.3 µM
same,GI50,MCF7 breast,3.45 µM
same,TGI,MCF7 breast,27.3 µM
same,GI50,786-0 renal,6.08 µM
same,TGI,786-0 renal,> 100 µM
same,GI50,COLO 205 colon,2.46 µM
same,TGI,COLO 205 colon,18.4 µM
